Measured values reported in ChEMBL document CHEMBL1151513, “Stereospecific synthesis of chiral acyclic analogues of guanosine” (1992).
Calls of active or inactive are those of the source. The calls are words filed in the database; no cut-off is given here.

Experiments:
MT4 [1] = assay: Compound was tested for its cytotoxic effect against MT-4 cells at 1 mM; 1 to 10 uM; format: functional; settings: Homo sapiens, read-out: CD50 (the source's name)
[2] = Compound was tested for its in vitro inhibitory effect on the replication of DNA and RNA viruses at 1 mM; No inhibition; format: functional
MT4 [3] = assay: Compound was tested for its cytotoxic effect against MT-4 cells at 1 mM; No effect; format: functional, cell-based; settings: Homo sapiens
MT4 [4] = assay: Compound was tested for its cytotoxic effect against MT-4 cells at 1 mM;value between 10-100 uM; format: functional; settings: Homo sapiens, read-out: CD50 (the source's name)

Row | Compound | CC50 (MT4 [1]) [µM] | Activity [2] | Activity (MT4 [3]) | CC50 (MT4 [4]) [µM]
1 | Nc1nc(O)c2ncn(C(CCO)OCCO)c2n1 (stereo not drawn) | < 10 | inactive | – | –
2 | Nc1nc(O)c2ncn(C(OCCO)C(O)CO)c2n1 (stereo not drawn) | – | inactive | inactive | –
3 | Nc1nc(O)c2ncn(C(CO)OCCO)c2n1 (stereo not drawn) | – | inactive | inactive | –
4 | Nc1nc(O)c2ncn(C3CC(O)C(O)CO3)c2n1 (stereo not drawn) | – | inactive | – | < 100
